This passage reports EC50 results from patent US8148349B2, “Nucleoside cyclic phosphoramidates for the treatment of RNA-dependent RNA viral infection” (Istituto di Ricerche di Biologia Molecolare P. Angeletti …, priority 2006, dated 2012).

Read-outs that look alike come from different tables or passages of the source.

The subject of this experiment is subgenomic HCV Replicon in HuH-7 cells. The experiment in a line: Assay for Inhibition of HCV RNA Replication (Replicon assay). In kind it is cell-based, Hepatitis C Virus. As for the experimental part:
A. Assay for Inhibition of HCV RNA Replication:
The compounds of the present invention are evaluated for their ability to affect the replication of Hepatitis C Virus RNA in cultured hepatoma (HuH-7) cells containing a subgenomic HCV Replicon. The details of the assay are described below. This Replicon assay is a modification of that described in V. Lohmann, F. Korner, J-O. Koch, U. Herian, L. Theilmann, and R. Bartenschlager, “Replication of a Sub-genomic Hepatitis C Virus RNAs in a Hepatoma Cell Line,” Science 285:110 (1999).
The assay is an in situ Ribonuclease protection, Scintillation Proximity based-plate assay (SPA). 10,000-40,000 cells are plated in 100-200 μL of media containing 0.8 mg/mL G418 in 96-well cytostar plates (Amersham). Compounds are added to cells at various concentrations up to 100 μM in 1% DMSO at time 0 to 18 h and then cultured for 24-96 h. Cells are fixed (20 min, 10% formalin), permeabilized (20 min, 0.25% Triton X-100/PBS) and hybridized (overnight, 50° C.) with a single-stranded ^33P RNA probe complementary to the (+) strand NS5B (or other genes) contained in the RNA viral genome. Cells are washed, treated with RNAse, washed, heated to 65° C. and counted in a Top-Count. Inhibition of replication is read as a decrease in counts per minute (cpm).
Human HuH-7 hepatoma cells, which are selected to contain a subgenomic replicon, carry a cytoplasmic RNA consisting of an HCV 5′ non-translated region (NTR), a neomycin selectable marker, an EMCV IRES (internal ribosome entry site), and HCV non-structural proteins NS3 through NS5B, followed by the 3′ NTR.

Setting [1] is: Hepatitis C virus, HuH-7 cells containing a subgenomic HCV Replicon, read-out: Replicon Assay EC50.
Where [2] appears, read: HuH-7 cells containing a subgenomic HCV Replicon, read-out: Replicon Assay EC50.
Setting [3] is: Hepatitis C virus, Huh-7, read-out: Replicon Assay EC50.

In the case of `C[C@H](NP1(=O)OC[C@H]2O[C@@H](n3ccc(N)nc3=O)[C@](C)(O)[C@@H]2O1)C(=O)OC1CCCC1` (stereo partly drawn) [Example 9, cyclopentyl N-[(4aR,6R,7R,7aR)-6-(4-amino-2-oxopyrimidin-1(2H)-yl)-7-hydroxy-7-methyl-2-oxidotetrahydro-4H-furo[3,2d][1,3,2]-dioxaphosphinin-2-yl]-L-alaninate], under setting [1], the EC50 was greater than 20 µM.

On to `CCCCCCCOC(=O)[C@H](C)NP1(=O)OC[C@H]2O[C@@H](n3ccc(N)nc3=O)[C@](C)(O)[C@@H]2O1` (single isomer, unassigned) [Example 3], for which, under setting [1], the EC50 amounted to 5 µM.

As to `CCC(CC)COC(=O)[C@H](C)NP1(=O)OC[C@H]2O[C@@H](n3ccc(N)nc3=O)[C@](C)(O)[C@@H]2O1` (stereo partly drawn) [Example 15, 2-ethylbutyl N-[(4aR,6R,7R,7aR)-6-(4-amino-2-oxopyrimidin-1(2H)-yl)-7-hydroxy-7-methyl-2-oxidotetrahydro-4H-furo[3,2-d][1,3,2]dioxaphosphinin-2-yl]-L-alaninate], the EC50 under setting [1] was greater than 20 µM.

`COCCCOC(=O)[C@H](C)NP1(=O)OC[C@H]2O[C@@H](n3ccc(N)nc3=O)[C@](C)(O)[C@@H]2O1` (stereo partly drawn) [Example 14, 3-methoxypropyl N[(4aR,6R,7R,7aR)-6-(4-amino-2-oxopyrimidin-1(2H)-yl)-7-hydroxy-7-methyl-2-oxidotetrahydro-4H-furo[3,2-d][1,3,2]dioxaphosphinin-2-yl]-L-alaninate]: the EC50 under setting [2] is 28 µM.

For `C[C@H](NP1(=O)OC[C@H]2O[C@@H](n3ccc(N)nc3=O)[C@](C)(O)[C@@H]2O1)C(=O)OC1CCCCC1` (stereo partly drawn) [Example 12, cyclohexyl N-[(4aR,6R,7R,7aR)-6-(4-amino-2-oxopyrimidin-1(2H)-yl)-7-hydroxy-7-methyl-2oxidotetrahydro-4Hfuro[3,2d][1,3,2]dioxaphosphinin-2-yl]-L-alaninate], the EC50 under setting [1] is greater than 20 µM.

In the case of `CCCC(CCC)COC(=O)[C@H](C)NP1(=O)OC[C@H]2O[C@@H](n3ccc(N)nc3=O)[C@](C)(O)[C@@H]2O1` (stereo partly drawn) [Example 16, 2-propylpentyl N-[(4aR,6R,7R,7aR)-6-(4-amino-2-oxopyrimidin-1(2H)-yl)-7-hydroxy-7-methyl-2-oxidotetrahydro-4H-furo[3,2-d][1,3,2]dioxaphosphinin-2-yl]-L-alaninate], the 50% effective concentration (EC50) under setting [1] was 14 µM.

For the compound `CCOC(=O)[C@H](CC)NP1(=O)OC[C@H]2O[C@@H](n3ccc(N)nc3=O)[C@](C)(O)[C@@H]2O1` (stereo partly drawn) [Example 6, ethyl (2S)-2-{[(4aR,6R,7R,7aR)-6-(4-amino-2-oxopyrimidin-1(2H)-yl)-7-hydroxy-7-methyl-2-oxidotetrahydro-4H-furo[3,2d][1,3,2]dioxaphosphinin-2-yl]amino}butanoate], under setting [3], the EC50 stood at 6 µM.

For the compound `C[C@H](NP1(=O)OC[C@H]2O[C@@H](n3ccc(N)nc3=O)[C@](C)(O)[C@@H]2O1)C(=O)OC(C)(C)C` (stereo partly drawn) [Example 4, tert-butyl N-[(4aR,6R,7R,7aR)-6-(4-amino-2-oxopyrimidin-1(2H)-yl)-7-hydroxy-7-methyl-2-oxidotetrahydro-4H-furo[3,2d][1,3,2]dioxaphosphinin-2-yl]-L-alaninate], the concentration for a half-maximal effect (EC50) under setting [3] is greater than 20 µM.

`CCC[C@H](NP1(=O)OC[C@H]2O[C@@H](n3ccc(N)nc3=O)[C@](C)(O)[C@@H]2O1)C(=O)OCC` (stereo partly drawn) [Example 8, ethyl N-[(4aR,6R,7R,7aR)-6-(4-amino-2-oxopyrimidin-1(2H)-yl)-7-hydroxy-7-methyl-2-oxidotetrahydro-4H-furo[3,2-d][1,3,2]dioxaphosphinin-2-yl]-L-norvalinate]: the EC50 under setting [3] is greater than 20 µM.

`CCOC(=O)[C@H](C)NP1(=O)OC[C@H]2O[C@@H](n3ccc(N)nc3=O)[C@](C)(O)[C@@H]2O1` (stereo partly drawn) [Example 10, ethyl N-[(4aR,6R,7R,7aR)-6-(4-amino-2-oxopyrimidin-1(2H)-yl)-7-hydroxy-7-methyl-2oxidotetrahydro-4H-furo[3,2-d][1,3,2]-dioxaphosphinin-2-yl]-L-alaninate]: the half-maximal effective concentration (EC50) under setting [3] stood at 4 µM.

In the case of “n-heptyl N-{(4aR,6R,7R,7aR)-7-hydroxy-7-methyl-6-[4-[(1-methylene-2-propylpentyl)amino]-2-oxopyrimidin-1(2H)-yl]-2-oxidotetrahydro-4H-furo[3,2-d][1,3,2]dioxaphosphinin-2-yl}-L-alaninate [Example 22]”, the half-maximal effective concentration (EC50) under setting [2] stood at 12 µM.

As to `C[C@H](NP1(=O)OC[C@H]2O[C@@H](n3ccc(N)nc3=O)[C@](C)(O)[C@@H]2O1)C(=O)OCCCC1CCCCC1` (stereo partly drawn) [Example 19, 3-cyclohexylpropyl N-[(4aR,6R,7R,7aR)-6-(4-amino-2-oxopyrimidin-1(2H)-yl)-7-hydroxy-7-methyl-2-oxidotetrahydro-4H-furo[3,2-d][1,3,2]dioxaphosphinin-2-yl]-L-alaninate], the EC50 under setting [1] stood at 10 µM.

In the case of `CCCC(CCC)C(=O)Nc1ccn([C@@H]2O[C@@H]3COP(=O)(N[C@@H](C)C(=O)OCC)O[C@H]3[C@@]2(C)O)c(=O)n1` (stereo partly drawn) [Example 21, ethyl N-{(4aR,6R,7R,7aR)-7-hydroxy-7-methyl-2-oxido-6-[2-oxo-4-[(2-propylpentanoyl)amino]pyrimidin-1(2H)-yl]tetrahydro-4H-furo[3,2-d][1,3,2]dioxaphosphinin-2-yl}-L-alaninate], the EC50 under setting [1] is greater than 20 µM.

On to `CCOC(=O)[C@H](CC(C)C)NP1(=O)OC[C@H]2O[C@@H](n3ccc(N)nc3=O)[C@](C)(O)[C@@H]2O1` (stereo partly drawn) [Example 7, ethyl N-[(4aR,6R,7R,7aR)-6-(4-amino-2-oxopyrimidin-1(2H)-yl)-7-hydroxy-7-methyl-2-oxidotetrahydro-4H-furo[3,2-d][1,3,2]dioxaphosphinin-2-yl]-L-leucinate], for which the concentration giving a half-maximal response (EC50) under setting [1] is 50 µM.

In the case of `CCCC(CCC)C(=O)Nc1ccn([C@@H]2O[C@@H]3COP(=O)(N[C@@H](CC)C(=O)OCC)O[C@H]3[C@@]2(C)O)c(=O)n1` (stereo partly drawn) [Example 20, Ethyl (2S)-2-({(4aR,6R,7R,7aR)-7-hydroxy-7-methyl-2-oxido-6-[2-oxo-4-[(2-propylpentanoyl)amino]pyrimidin-1(2H)-yl]tetrahydro-4H-furo[3,2-d][1,3,2]dioxaphosphinin-2-yl}amino)butanoate], under setting [1], the EC50 is greater than 20 µM.

Regarding `CCCCCCCOC(=O)[C@H](C)NP1(=O)OC[C@H]2O[C@@H](n3ccc(NC(=O)OCCCN(C)C)nc3=O)[C@](C)(O)[C@@H]2O1` (stereo partly drawn) [Example 23, n-heptyl N-{(4aR,6R,7R,7aR)-6-[4-({[3-(dimethylamino)propoxy]carbonyl}amino)-2-oxopyrimidin-1(2H)-yl]-7-hydroxy-7-methyl-2-oxidotetrahydro-4H-furo[3,2-d][1,3,2]dioxaphosphinin-2-yl}-L-alaninate], the half-maximal effective concentration (EC50) under setting [1] was greater than 20 µM.

As to `C[C@H](NP1(=O)OC[C@H]2O[C@@H](n3ccc(N)nc3=O)[C@](C)(O)[C@@H]2O1)C(=O)OC1CCCCCC1` (stereo partly drawn) [Example 18, cycloheptyl N-[(4aR,6R,7R,7aR)-6-(4-amino-2-oxopyrimidin-1(2H)-yl)-7-hydroxy-7-methyl-2-oxidotetrahydro-4H-furo[3,2-d][1,3,2]dioxaphosphinin-2-yl]-L-alaninate], the EC50 under setting [1] is greater than 10 µM.

Turning to `CCCCOC(=O)[C@H](C)NP1(=O)OC[C@H]2O[C@@H](n3ccc(N)nc3=O)[C@](C)(O)[C@@H]2O1` (single isomer, unassigned) [Example 1], the concentration giving a half-maximal response (EC50) under setting [3] came to 15 µM.

On to `CCCCCCCOC(=O)[C@H](C)NP1(=O)OC[C@H]2O[C@@H](n3ccc(N)nc3=O)[C@](C)(O)[C@@H]2O1` (stereo partly drawn) [Example 11, n-heptyl N-[(4aR,6R,7R,7aR)-6-(4-amino-2-oxopyrimidin-1(2H)-yl)-7-hydroxy-7-methyl-2oxidotetrahydro-4Hfuro[3,2d][1,3,2]-dioxaphosphinin-2-yl]-L-alaninate], for which the EC50 under setting [1] was 10 µM.

Turning to `CC(C)CCOC(=O)[C@H](C)NP1(=O)OC[C@H]2O[C@@H](n3ccc(N)nc3=O)[C@](C)(O)[C@@H]2O1` (stereo partly drawn) [Example 13, isopentyl N-[(4aR,6R,7R,7aR)-6-(4-amino-2-oxopyrimidin-1(2H)-yl)-7-hydroxy-7-methyl-2-oxidotetrahydro-4H-furo[3,2d][1,3,2]-dioxaphosphinin-2-yl]-L-alaninate], the EC50 under setting [1] is greater than 20 µM.

With `CCOC(=O)[C@H](C)NP1(=O)OC[C@H]2O[C@@H](n3ccc(N)nc3=O)[C@](C)(O)[C@@H]2O1` (single isomer, unassigned) [Example 2], the EC50 under setting [3] was 4 µM.

On to `CCCCCCOCCOC(=O)[C@H](C)NP1(=O)OC[C@H]2O[C@@H](n3ccc(N)nc3=O)[C@](C)(O)[C@@H]2O1` (stereo partly drawn) [Example 17, 2-(hexyloxy)ethyl N-[(4aR,6R,7R,7aR)-6-(4-amino-2-oxopyrimidin-1(2H)-yl)-7-hydroxy-7-methyl-2-oxidotetrahydro-4H-furo[3,2-d][1,3,2]dioxaphosphinin-2-yl]-L-alaninate], for which, under setting [1], the EC50 is 15 µM.

In the case of `CCCCOC(=O)[C@H](C)NP1(=O)OC[C@H]2O[C@@H](n3ccc(N)nc3=O)[C@](C)(O)[C@@H]2O1` (stereo partly drawn) [Example 5, n-butyl N-[(4aR,6R,7R,7aR)-6-(4-amino-2-oxopyrimidin-1(2H)-yl)-7-hydroxy-7-methyl-2-oxidotetrahydro-4H-furo[3,2d][1,3,2]dioxaphosphinin-2-yl]-L-alaninate], under setting [3], the EC50 was 15 µM.
